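Exposure lasted 48 hours, with cells grown in 96-well plates and compounds tested at five concentrations. Abbreviation: GI50, concentration required for 50% inhibition of growth. TGI: concentration producing complete growth inhibition.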

Among the test systems are M14 melanoma; UACC-62 melanoma; OVCAR-5 ovarian; U251 CNS; SR leukemia; NCI-H460 lung; NCI-H522 lung; MALME-3M melanoma; PC-3 prostate; T-47D breast.
Holding throughout (experiment): inhibition of tumour cell growth, NCI panel, 48 h

Take `CCOC(=O)C1CCn2c(nc3c2c(=O)n(C)c(=O)n3C)S1` (stereo unspecified): the TGI in the experiment with M14 melanoma, with UACC-62 melanoma, in the experiment with OVCAR-5 ovarian, in the experiment on U251 CNS, in the experiment on SR leukemia and in the experiment on NCI-H460 lung was > 100 µM throughout. The TGI in the experiment with NCI-H522 lung and in the experiment with MALME-3M melanoma was > 100 µM throughout.
Consider `CCC(C)C1NC(=O)C2CCCN2C(=O)C(CC2CO2)OC(=O)CCNC(=O)C(C)N(C)C(=O)C(C(C)C)N(C)C1=O` (stereo unspecified), for which the TGI in the experiment on M14 melanoma was 0.0179 µM; in the experiment on UACC-62 melanoma it was 2.15 µM; in the experiment with OVCAR-5 ovarian it was > 100 µM; with PC-3 prostate, > 100 µM; in the experiment with U251 CNS, > 100 µM; with NCI-H460 lung, > 100 µM. Further, the values for the TGI in the experiment on NCI-H522 lung, with MALME-3M melanoma and in the experiment on T-47D breast were > 100 µM, 0.0641 µM and > 100 µM, respectively.
As for `CC1(C)CCC2(C(=O)OC3OC(CO)C(O)C(O)C3O)CCC3(C)C(=CCC4C5(C)CCC(OC6OC(CO)C(O)C(O)C6O)C(C)(C)C5CCC43C)C2C1` (stereo unspecified), the TGI with M14 melanoma is > 25 µM; with UACC-62 melanoma it was > 25 µM; with OVCAR-5 ovarian, > 25 µM; in the experiment with PC-3 prostate it was > 25 µM; in the experiment on U251 CNS, 10.4 µM; in the experiment on SR leukemia, 10.7 µM. The TGI with NCI-H460 lung is > 25 µM; in the experiment on NCI-H522 lung it was 12.9 µM; in the experiment with MALME-3M melanoma, > 25 µM; in the experiment with T-47D breast, 24.3 µM.
As for `CC(=O)OC1CC(O)CC2=CCC3C4CCC(C(C)(O)C(O)CC5COC(=O)C5C)C4(C)CCC3C21C` (stereo unspecified), the TGI in the experiment with M14 melanoma, in the experiment with UACC-62 melanoma, in the experiment on OVCAR-5 ovarian, in the experiment with PC-3 prostate, with U251 CNS and in the experiment with SR leukemia was > 25 µM each time. Also, the TGI in the experiment on NCI-H460 lung, in the experiment with NCI-H522 lung and in the experiment on T-47D breast was > 25 µM throughout.
Take `O=C1c2cc3c(cc2-c2c1c1ccc(Cl)cc1c(=O)n2C[C@H](O)[C@@H](O)[C@H](O)CO)OCO3`: the GI50 in the experiment with M14 melanoma was 0.0292 µM; in the experiment with UACC-62 melanoma, 0.0129 µM; with OVCAR-5 ovarian, 0.0524 µM; in the experiment on PC-3 prostate, 0.128 µM; with U251 CNS, < 0.01 µM; in the experiment with NCI-H460 lung, 0.0284 µM. For the same compound, the GI50 in the experiment on NCI-H522 lung was 0.0117 µM; with MALME-3M melanoma, 0.0737 µM; with T-47D breast, 0.0132 µM. Besides, the TGI with M14 melanoma is 10.1 µM; in the experiment with UACC-62 melanoma, 0.111 µM; in the experiment on OVCAR-5 ovarian, 1.29 µM; in the experiment on PC-3 prostate it was > 100 µM; in the experiment with U251 CNS, 0.0505 µM; in the experiment on NCI-H460 lung, 0.153 µM. Besides, the TGI is 0.172 µM in the experiment on NCI-H522 lung, 0.505 µM in the experiment on MALME-3M melanoma and 0.29 µM in the experiment with T-47D breast.
For the compound `CCOC(=O)/C(=C\NCC(OCC)OCC)c1nc2ccccc2[nH]1`, the TGI in the experiment with M14 melanoma was > 100 µM; in the experiment with UACC-62 melanoma it was 33.2 µM; in the experiment with OVCAR-5 ovarian it was > 100 µM; with PC-3 prostate, 63.7 µM; in the experiment on U251 CNS it was > 100 µM; in the experiment with SR leukemia, 58.5 µM. For the same compound, the TGI in the experiment on NCI-H460 lung came to 71.5 µM; in the experiment on NCI-H522 lung, 62.1 µM; in the experiment on MALME-3M melanoma, 61.5 µM; in the experiment with T-47D breast, 94.5 µM.
Take `COC(=O)C1C(O)CCC2CN3CCc4c([nH]c5cccc(OC)c45)C3CC21` (stereo unspecified): the TGI in the experiment with M14 melanoma, in the experiment with UACC-62 melanoma, with OVCAR-5 ovarian, with PC-3 prostate, in the experiment on U251 CNS and in the experiment on SR leukemia was > 100 µM in each case. Further, the TGI with NCI-H460 lung, with NCI-H522 lung, in the experiment on MALME-3M melanoma and with T-47D breast was > 100 µM in each case.
For `O=S(=O)(/N=C(\NO)Nc1ccc(Cl)cc1)c1ccc(S(=O)(=O)c2ccccc2)s1`, the TGI was 37.4 µM in the experiment on M14 melanoma; 33.7 µM with UACC-62 melanoma; 63.7 µM in the experiment on OVCAR-5 ovarian; > 100 µM in the experiment on PC-3 prostate; 60.3 µM in the experiment with U251 CNS; 29.1 µM with NCI-H460 lung. Further, the TGI in the experiment on NCI-H522 lung was 37.7 µM; in the experiment with MALME-3M melanoma it was 41.9 µM; with T-47D breast it was 96.3 µM.
`Cc1cc(O)c(C(C)C)cc1CN1CCCCC1`: the TGI with M14 melanoma, with UACC-62 melanoma, in the experiment on OVCAR-5 ovarian, with PC-3 prostate, in the experiment on U251 CNS and in the experiment with NCI-H460 lung was > 100 µM throughout. Besides, the TGI in the experiment on NCI-H522 lung, with MALME-3M melanoma and in the experiment on T-47D breast was > 100 µM each time.
With `C/C(=N\NC(=O)c1cccnc1)c1cccc(/C(C)=N/NC(=O)c2cccnc2)n1`, the TGI in the experiment with M14 melanoma is 13.6 µM; in the experiment with UACC-62 melanoma, 5.7 µM; in the experiment with OVCAR-5 ovarian it was 8.28 µM; in the experiment with U251 CNS, > 100 µM; with SR leukemia, > 100 µM; with NCI-H460 lung it was 34.6 µM. In addition, the TGI was found to be 6.76 µM in the experiment on NCI-H522 lung and 9.81 µM in the experiment on MALME-3M melanoma. In addition, the GI50 was 4.56 µM with SR leukemia, 1.58 µM in the experiment on NCI-H522 lung and 2.6 µM in the experiment on MALME-3M melanoma.
As to `O=S(=O)(O)c1cccc2c(N=Nc3c(O)ccc4ccccc34)cccc12`, the TGI with M14 melanoma, with UACC-62 melanoma, with OVCAR-5 ovarian, with PC-3 prostate, with U251 CNS and with SR leukemia was > 100 µM each time. For the same compound, the TGI in the experiment on NCI-H522 lung, with MALME-3M melanoma and with T-47D breast was > 100 µM throughout.
With `CS(=O)(=O)c1nc(-c2cc3c(c(S(C)(=O)=O)n2)CCCC3)cc2c1CCCC2`, the TGI in the experiment on M14 melanoma was > 100 µM; in the experiment with UACC-62 melanoma it was > 62.3 µM; in the experiment on OVCAR-5 ovarian, > 100 µM; with PC-3 prostate, > 100 µM; in the experiment with U251 CNS, > 100 µM; with SR leukemia, > 100 µM. Besides, the TGI in the experiment with NCI-H522 lung was > 77.6 µM; with MALME-3M melanoma it was > 100 µM; with T-47D breast, > 100 µM.
For `O=[N+]([O-])c1ccc2c(c1)c(N=NC(=S)NC1CCCCC1)c(O)n2CN1CCOCC1`, the TGI was 21.8 µM in the experiment with M14 melanoma; 20.5 µM in the experiment on UACC-62 melanoma; 23.8 µM in the experiment with OVCAR-5 ovarian; 19 µM in the experiment on PC-3 prostate; 17.3 µM in the experiment on U251 CNS; 21.5 µM with SR leukemia. The TGI in the experiment on NCI-H460 lung is 13.5 µM; in the experiment with NCI-H522 lung, 30.3 µM; with MALME-3M melanoma it was 24.4 µM; with T-47D breast, 17.7 µM.

(Values after PubChem BioAssay (NCI).)
